Measurements as given in the NIST ThermoML archive (doi:10.1021/je050402s).

Experiment: xn = mol fraction of the nth substance listed
Conditions: 100.5 kPa, Liquid; for viscosity: Capillary tube (Ostwald / Ubbelohde) method

CC(=O)OCc1ccccc1 [benzyl ethanoate] + CCO
Conditions | mass density, 288.15 K [kg/m3] | mass density, 298.15 K [kg/m3] | mass density, 308.15 K [kg/m3] | mass density, 318.15 K [kg/m3] | viscosity, 288.15 K [mPa·s] | viscosity, 298.15 K [mPa·s] | viscosity, 308.15 K [mPa·s] | viscosity, 318.15 K [mPa·s]
x1 = 0.05 | 825.52 | 816.73 | 807.83 | 798.78 | 1.317 | 1.089 | 0.91 | 0.766
x1 = 0.1 | 852.86 | 843.91 | 834.85 | 825.63 | 1.328 | 1.098 | 0.92 | 0.779
x1 = 0.15 | 876.56 | 867.47 | 858.28 | 848.94 | 1.357 | 1.123 | 0.942 | 0.796
x1 = 0.2 | 897.58 | 888.4 | 879.1 | 869.66 | 1.393 | 1.154 | 0.967 | 0.821
x1 = 0.25 | 916.18 | 906.92 | 897.57 | 888.07 | 1.439 | 1.191 | 0.998 | 0.846
x1 = 0.3 | 932.86 | 923.54 | 914.12 | 904.56 | 1.489 | 1.231 | 1.031 | 0.875
x1 = 0.35 | 947.82 | 938.44 | 928.98 | 919.38 | 1.543 | 1.274 | 1.067 | 0.906
x1 = 0.4 | 961.41 | 952 | 942.5 | 932.88 | 1.601 | 1.319 | 1.104 | 0.937
x1 = 0.45 | 973.74 | 964.29 | 954.76 | 945.12 | 1.661 | 1.365 | 1.142 | 0.971
x1 = 0.5 | 984.92 | 975.44 | 965.91 | 956.27 | 1.724 | 1.413 | 1.182 | 1.005
x1 = 0.55 | 995.2 | 985.72 | 976.17 | 966.52 | 1.789 | 1.465 | 1.223 | 1.04
x1 = 0.6 | 1004.68 | 995.21 | 985.66 | 976.03 | 1.859 | 1.518 | 1.268 | 1.077
x1 = 0.65 | 1013.4 | 1003.92 | 994.38 | 984.76 | 1.929 | 1.571 | 1.312 | 1.116
x1 = 0.7 | 1021.55 | 1012.1 | 1002.56 | 992.96 | 2.003 | 1.629 | 1.36 | 1.156
x1 = 0.75 | 1029.05 | 1019.58 | 1010.07 | 1000.51 | 2.081 | 1.691 | 1.409 | 1.197
x1 = 0.8 | 1036.05 | 1026.61 | 1017.13 | 1007.6 | 2.163 | 1.76 | 1.463 | 1.241
x1 = 0.85 | 1042.59 | 1033.16 | 1023.71 | 1014.22 | 2.249 | 1.83 | 1.524 | 1.289
x1 = 0.9 | 1048.78 | 1039.39 | 1029.98 | 1020.53 | 2.339 | 1.906 | 1.588 | 1.341
x1 = 0.95 | 1054.57 | 1045.21 | 1035.84 | 1026.44 | 2.44 | 1.987 | 1.652 | 1.392
x1 = 1 | 1060.11 | 1050.75 | 1041.39 | 1032.03 | 2.53 | 2.056 | 1.703 | 1.432

CCC(=O)OCc1ccccc1 [benzyl propanoate] + CCO
Conditions | mass density, 288.15 K [kg/m3] | mass density, 298.15 K [kg/m3] | mass density, 308.15 K [kg/m3] | mass density, 318.15 K [kg/m3] | viscosity, 288.15 K [mPa·s] | viscosity, 298.15 K [mPa·s] | viscosity, 308.15 K [mPa·s] | viscosity, 318.15 K [mPa·s]
x1 = 0.05 | 825.63 | 816.86 | 807.99 | 798.97 | 1.352 | 1.115 | 0.929 | 0.777
x1 = 0.1 | 852.43 | 843.5 | 834.48 | 825.3 | 1.379 | 1.14 | 0.949 | 0.795
x1 = 0.15 | 875.21 | 866.17 | 857.03 | 847.75 | 1.42 | 1.173 | 0.976 | 0.819
x1 = 0.2 | 894.95 | 885.82 | 876.6 | 867.25 | 1.466 | 1.211 | 1.009 | 0.848
x1 = 0.25 | 912.16 | 902.96 | 893.68 | 884.27 | 1.516 | 1.253 | 1.044 | 0.879
x1 = 0.3 | 927.38 | 918.13 | 908.8 | 899.34 | 1.571 | 1.298 | 1.084 | 0.913
x1 = 0.35 | 940.83 | 931.54 | 922.17 | 912.69 | 1.631 | 1.348 | 1.127 | 0.95
x1 = 0.4 | 952.87 | 943.55 | 934.16 | 924.65 | 1.694 | 1.401 | 1.171 | 0.988
x1 = 0.45 | 963.72 | 954.39 | 944.97 | 935.46 | 1.757 | 1.454 | 1.217 | 1.027
x1 = 0.5 | 973.57 | 964.22 | 954.79 | 945.28 | 1.821 | 1.509 | 1.263 | 1.067
x1 = 0.55 | 982.43 | 973.07 | 963.63 | 954.12 | 1.886 | 1.564 | 1.31 | 1.107
x1 = 0.6 | 990.54 | 981.17 | 971.74 | 962.24 | 1.952 | 1.621 | 1.358 | 1.148
x1 = 0.65 | 997.98 | 988.61 | 979.19 | 969.71 | 2.019 | 1.678 | 1.407 | 1.19
x1 = 0.7 | 1004.81 | 995.44 | 986.04 | 976.58 | 2.088 | 1.737 | 1.457 | 1.233
x1 = 0.75 | 1011.09 | 1001.73 | 992.35 | 982.93 | 2.158 | 1.797 | 1.509 | 1.278
x1 = 0.8 | 1016.98 | 1007.63 | 998.28 | 988.88 | 2.23 | 1.858 | 1.562 | 1.323
x1 = 0.85 | 1022.5 | 1013.15 | 1003.82 | 994.46 | 2.305 | 1.921 | 1.617 | 1.37
x1 = 0.9 | 1027.59 | 1018.25 | 1008.96 | 999.64 | 2.383 | 1.986 | 1.674 | 1.419
x1 = 0.95 | 1032.37 | 1023.06 | 1013.8 | 1004.53 | 2.463 | 2.053 | 1.729 | 1.468
x1 = 1 | 1036.86 | 1027.6 | 1018.38 | 1009.15 | 2.55 | 2.123 | 1.787 | 1.515
